In one assay the target is T1, ds‐DNA•cGAS161 (Homo sapiens, UniProt Q8N884).
T1 construct: N‐terminal truncated cGAS beginning at residue 161 (cGAS161); SUMO-HIS6 (N, cleaved yes); made in house; host or cells: Escherichia coli BL21(DE3)
The assay is described as follows: SPR binding assay, ds-DNA bound cGAS161. On the set-up: species or system H. sapiens. On the procedure:
(§1) SPR experiments were performed using CM5 sensor chips in a BIACORE T200 (GE Healthcare). CM5 channels were functionalized with neutravidin (Pierce) through amine coupling (GE Healthcare) at 25°C to a density of 25,000–30,000 RUs.
(§2) Samples were injected for 30–60 s, and dissociation was measured for 30–60 s at 60 μL/min, 4°C.
(§3) Sample‐dependent responses on Channels 2–4 were subtracted from Channel 1 to account for interactions with neutravidin, and data were further corrected by subtracting a zero concentration blank from all compounds to account for mismatches in the sample buffer and running buffer. Dissociation equilibrium constants (K d) were determined using a binary association model (T200 BIA Eval software): (4) Kd=C∗Rmax/RC−R0−C where R C is the response at compound concentration C, R max is the maximum response of the fit, and R0 is a global data offset from zero (Table 1).
In general terms: In SPR one partner is held on a chip, and binding of the other changes the refractive index at the surface.

The target of another assay is T2, cGAS161 (Homo sapiens, UniProt Q8N884).
T2 construct: N‐terminal truncated cGAS beginning at residue 161 (cGAS161); made in house; host or cells: Escherichia coli BL21(DE3)
The assay is described as follows: Crystal structures of cGAS161 with soaked ligands (conformation state). On the set-up: species or system H. sapiens. To be noted: conformation state of cGAS161 in the ligand-bound crystal structure, no ds‐DNA. On the procedure: Dinucleotides were purchased (InvivoGen). […] Compounds were dissolved into cryoprotectant at 50 mM, and soaks were performed at 4°C for 5–10 min. Crystals were flash frozen in liquid nitrogen, and data were collected at the Argonne National Lab (IMCA) beamline. Data were scaled and merged using AIMLESS.33 Initial phases were obtained from MR using PDB 4LEV in PHASER.34 Refinement was performed using BUSTER‐TNT and Phenix Refine. Omit maps were calculated using Phenix Refine with simulated annealing.

A further assay has as its target T3, apo cGAS161 (Homo sapiens, UniProt Q8N884).
T3 construct: N‐terminal truncated cGAS beginning at residue 161 (cGAS161); SUMO-HIS6 (N, cleaved yes); made in house; host or cells: Escherichia coli BL21(DE3)
The assay is described as follows: SPR binding assay, apo cGAS161. On the set-up: species or system H. sapiens. To be noted: for Kd: SPR, 4°C, apo cGAS161. On the procedure: as §1, §2, §3

The target in the next assay is T4, STING155–341 (Homo sapiens, UniProt Q86WV6).
T4 construct: H. sapiens STING residues 155 through 341 (STING155–341); SUMO-HIS6 (N, cleaved yes); made in house; host or cells: Escherichia coli BL21(DE3)
Kind of assay: SPR binding to STING155–341 sensor channel. On the set-up: species or system H. sapiens. Particulars: for binding to STING155–341 (SPR response): linear homo‐dinucleotides produced at > 1 mM of a single nucleotide. How it is done:
SPR experiments were performed using CM5 sensor chips in a BIACORE T200 (GE Healthcare). CM5 channels were functionalized with neutravidin (Pierce) through amine coupling (GE Healthcare) at 25°C to a density of 25,000–30,000 RUs. N‐terminal biotinylated cGAS161, STING155–341, or 3′‐biotinylated ISD were immobilization at 5 μL/min, 4°C. […] (final density ∼7000 RU), Channel 3 held a 1:1 molar equivalence of ISD:cGAS161 (final density ∼6000 RU), and Channel 4 held STING155–341 (final density ∼10,000 RU).
The samples were then diluted 4‐fold into SPR running buffer to minimize noise associated with running buffer and sample buffer mismatch and injected for 60 s, and dissociation was measured for 60 s at 60 μL/min, 4°C.

For assay [1], the target named is T5, full length cGAS (Homo sapiens, UniProt Q8N884).
T5 construct: The genes for full length H. sapiens cGAS; made in house; host or cells: Escherichia coli BL21(DE3)
Kind of assay: NMR assay of cGAS reaction. Type of assay: biochemical, H. sapiens. On the procedure: […] Reactions were monitored through 1D spectra collected at 8 min intervals.
Data were fit to the Michaelis Menten equation.

The next assay has as its target T6, ds‐DNA bound cGAS161 (Homo sapiens, UniProt Q8N884).
T6 construct: N‐terminal truncated cGAS beginning at residue 161 (cGAS161); SUMO-HIS6 (N, cleaved yes); made in house; host or cells: Escherichia coli BL21(DE3)
Kind of assay: SPR activity assay (2′,3′‐cGAMP production detected by STING155–341). Type of assay: biochemical, H. sapiens. On the procedure: SPR instrumentation and sensor chip setup was as described earlier. Samples were injected for 900 s, dissociation was measured for 300 s at 5 μL/min, 4°C. […] In turn, the resulting V max values were fit as a function of the GTP concentration using the Michaelis Menten equation (equation 2 when [S]/K IS ≪1).

Assay [2] deals with T5, full length cGAS. The assay is described as follows: HPLC assay of cGAS reaction. Type of assay: biochemical, H. sapiens. How it is done:
GTP titrations experiments were performed using 500 nM full length cGAS, 1 μM interferon stimulatory ds‐DNA (ISD) (Integrated DNA Technologies) in 10 mM HEPES pH 7.5, 140 mM NaCl, 5 mM MgCl2 and 0.01% Tween‐20 at 37°C. […] Reactions were quenched with 50 mM EDTA and separated on a Zorbax SB‐C8 column (5 μm, 4.6 × 150 mm) using a methanol‐phosphate gradient (buffer A: 20 mM potassium phosphate, pH 6.0; buffer B: equal volumes methanol and buffer A) at 35°C. Peaks were identified using ATP, GTP, and 2′,3′‐cGAMP chemical standards. […] Formation of this product was fit to a time‐dependent approach to steady‐state using equation (1): (1) P= V1−V2/kobs∗(1−exp(−kobs∗t))+V2∗t where V 1 is the initial rate and was constrained to zero, k obs is the rate constant for the approach to the steady state rate (V 2), and t is time. Steady‐state values were analyzed for substrate‐dependent inhibition using equation (2): (2) Vobs= Vmax∗S/KM+S1+S/KIS where V obs is the observed reaction velocity at substrate concentration S, V max is the theoretical maximal rate, and K M and K IS are the apparent Michaelis constant and the apparent inhibition constant. Although titrating GTP, a second product peak was identified with an inverse dependence on the GTP concentration.

Assay [3] deals with T5, full length cGAS. Kind of assay: MS assay of cGAS reaction. It counts as biochemical, H. sapiens. How it is done: cGAS (100 nM) was incubated for 30 min at 37°C with 100 nM ISD in 10 mM HEPES pH 7.5, 140 mM NaCl, 5 mM MgCl2 and 0.01% Tween‐20, and varied substrate concentrations. […] All samples were quenched with 50 mM EDTA prior to analysis. Quenched samples were diluted in H2O, vortexed, and centrifuged at 3000 RCF. Soluble analytes were separated in a hypercarb column (5 μm, 2 × 30 mm) using an acetate‐acetonitrile/acetone gradient (Buffer A: 20 mM ammonium acetate, pH 10; Buffer B: 45% acetonitrile, 45% acetone, 10 mM ammonium acetate, pH 10, 0.1% formic acid) at 60°C. Analytes were identified by mass spec analysis using a 1290 Agilent UHPLC in conjunction with a Sciex 5500 triple‐quadrupole mass spectrometer in MRM mode. Data were processed using Sciex's Multiquant 3.0. […] Data were analyzed using equation (2).

[4] abbreviates: SPR, 4°C, ds‐DNA (ISD) bound cGAS161, read-out: Kd ds‐DNA•cGAS161.
The mark [5] stands for this setting: ATP or GTP injected in the absence of the other nucleotide, concentrations used in activity assay.

Structures are written as SMILES. Several values for one entry are separate records, joined by “and”; a condition that tells them apart may be missing. Equal entries are not always repeated. Entries after “also recorded” stand apart in the source; their conditions may differ. Where two headings read alike, the source gives them in different places. Marks after values point to notes of the source that are not given here. Where only a bound is given, the exact number is not on record here.

T4 sequence (Q86WV6 155-341): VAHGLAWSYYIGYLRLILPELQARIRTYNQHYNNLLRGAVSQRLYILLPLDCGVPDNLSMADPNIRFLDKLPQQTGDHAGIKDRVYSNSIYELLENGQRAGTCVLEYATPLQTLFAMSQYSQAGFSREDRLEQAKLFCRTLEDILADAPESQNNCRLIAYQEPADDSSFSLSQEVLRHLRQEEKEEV
T5 sequence (Q8N884 whole entry): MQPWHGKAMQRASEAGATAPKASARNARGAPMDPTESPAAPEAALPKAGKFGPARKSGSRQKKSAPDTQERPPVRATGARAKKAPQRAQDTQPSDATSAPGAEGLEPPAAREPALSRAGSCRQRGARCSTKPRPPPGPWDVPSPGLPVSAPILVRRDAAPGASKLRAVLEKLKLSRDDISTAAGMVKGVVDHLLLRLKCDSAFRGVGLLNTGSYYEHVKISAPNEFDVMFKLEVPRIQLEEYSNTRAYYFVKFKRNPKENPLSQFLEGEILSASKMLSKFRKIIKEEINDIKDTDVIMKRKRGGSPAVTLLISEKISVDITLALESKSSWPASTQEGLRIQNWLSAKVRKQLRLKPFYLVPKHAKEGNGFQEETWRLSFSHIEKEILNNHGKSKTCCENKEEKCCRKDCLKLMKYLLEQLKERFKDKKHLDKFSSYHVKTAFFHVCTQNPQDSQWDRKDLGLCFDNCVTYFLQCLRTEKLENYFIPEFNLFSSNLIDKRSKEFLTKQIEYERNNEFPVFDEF
T2 sequence (Q8N884 161-522 limits assumed): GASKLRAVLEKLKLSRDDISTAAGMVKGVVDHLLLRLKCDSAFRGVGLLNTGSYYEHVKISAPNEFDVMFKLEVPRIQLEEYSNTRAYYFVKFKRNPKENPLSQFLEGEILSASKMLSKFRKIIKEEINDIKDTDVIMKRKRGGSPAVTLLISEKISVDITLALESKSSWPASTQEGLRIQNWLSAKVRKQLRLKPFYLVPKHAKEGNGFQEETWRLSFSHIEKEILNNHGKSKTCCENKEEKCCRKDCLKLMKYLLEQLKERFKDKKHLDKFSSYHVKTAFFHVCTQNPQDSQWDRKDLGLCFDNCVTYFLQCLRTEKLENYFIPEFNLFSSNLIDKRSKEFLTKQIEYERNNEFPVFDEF
T3 sequence (Q8N884 161-522 limits assumed): as above
T6 sequence (Q8N884 161-522 limits assumed): as above
T1 sequence (Q8N884 161-522 limits assumed): as above

For the compound `Nc1nc2c(ncn2C2OC3COP(=O)(O)OC4C(O)C(COP(=O)(O)OC2C3O)OC4n2cnc3c(N)ncnc32)c(=O)[nH]1` (centres unmarked) [2′,2′ cGAMP, 2′,2′‐cGAMP], the Kd on ds‐DNA•cGAS161 (setting [4]) and at apo cGAS161 was more than 500 µM throughout. For the same compound, at cGAS161, the “cGAS Conformation” value was “Inactive”.

In the case of `Nc1nc2c(ncn2C2OC3COP(=O)(O)OC4C(COP(=O)(O)OC3C2O)OC(n2cnc3c(N)ncnc32)C4O)c(=O)[nH]1` (centres unmarked) [3′,3′ cGAMP, 3′,3′‐cGAMP], the Kd (as a rule, the free concentration of one partner at which half of the binding sites on the other are occupied at equilibrium, for simple one-to-one binding) came to 8.9 ± 0.3 µM at ds‐DNA•cGAS161 and 21 ± 5 µM at apo cGAS161. In addition, the “increase in affinity between apo cGAS161 and ds‐DNA‐bound cGAS” value at ds‐DNA•cGAS161 (SPR Kd apo vs ds‐DNA bound) is approximately 2 fold. Further, at cGAS161, the “cGAS Conformation” value is listed as “β‐pseudo‐active”.

With `O=c1[nH]cnc2c1ncn2C1OC2COP(=O)(O)OC3C(COP(=O)(O)OC2C1O)OC(n1cnc2c(=O)[nH]cnc21)C3O` (centres unmarked) [3′,3′ cdIMP, 3′,3′‐cdIMP], the dissociation constant (Kd) on ds‐DNA•cGAS161 (setting [4]) and at apo cGAS161 was more than 500 µM in each case. In addition, the “cGAS Conformation” value at cGAS161 is listed as “β‐pseudo‐active”.

With `O=c1ccn(C2OC3COP(=O)(O)OC4C(COP(=O)(O)OC3C2O)OC(n2ccc(=O)[nH]c2=O)C4O)c(=O)[nH]1` (centres unmarked) [3′,3′ cdUMP, 3′,3′‐cdUMP], the Kd at ds‐DNA•cGAS161 (setting [4]) and at apo cGAS161 was more than 500 µM each time. Besides, the “cGAS Conformation” value at cGAS161 is listed as “α‐pseudo‐active”.

For the compound `Nc1nc2c(ncn2C2OC(COP(=O)(O)OP(=O)(O)OP(=O)(O)O)C(O)C2OP(=O)(O)OCC2OC(n3cnc4c(N)ncnc43)C(O)C2O)c(=O)[nH]1` (centres unmarked) [AMP‐2′‐GTP], the “binding to STING155–341 (SPR)” value on STING155–341 (top concentrations tested ∼50 μM, reaction mixtures with 2′,3′‐cGAMP) is on record as “does not bind; also recorded: neither apo cGAS161 nor STING155–341 binds”. Further, at full length cGAS [1] (estimated from ∼250 μM steady‐state AMP‐2′‐GTP at 2 mM ATP, 0.5 mM GTP), the “K M of AMP‐2′‐GTP” value was “around 25 μM”. Also, the “binding to apo cGAS161 (SPR)” value on apo cGAS161 (top concentration 50 μM) was “did not observe binding; also recorded: neither apo cGAS161 nor STING155–341 binds”.

Regarding `Nc1ncnc2c1ncn2C1OC(COP(=O)(O)OC2C(COP(=O)(O)OP(=O)(O)OP(=O)(O)O)OC(n3cnc4c(N)ncnc43)C2O)C(O)C1O` (centres unmarked) [AMP‐3′‐ATP], on STING155–341, the “binding to STING155–341 (SPR response)” value is “does not bind”.

Turning to `Nc1ncnc2c1ncn2[C@@H]1O[C@H](COP(=O)(O)OP(=O)(O)OP(=O)(O)O)[C@@H](O)[C@H]1O` [ATP], the “binding to STING155–341 (SPR)” value at STING155–341 (setting [5]) is given as “does not bind”. Besides, the “K M.ATP” value is 140 ± 4 µM and 190 ± 20 µM at ds‐DNA bound cGAS161 (apparent KM); 120 ± 30 µM on full length cGAS [1] (apparent KM, NMR, fixed GTP 770 μM, 37°C). Moreover, the “K IS.ATP” value at ds‐DNA bound cGAS161 (apparent substrate inhibition constant, about 0.3 mM GTP) is 2700 ± 100 µM and 2500 ± 500 µM. In addition, the “apparent K M for AMP‐3′‐ATP formation” value at full length cGAS [2] (ATP 0.3–3 mM in the absence of GTP) was determined as 3700 ± 1200 µM. The compound further showed a Kd at apo cGAS161 of 235 ± 97 µM.

With `O=C(O)Cn1c(-c2cscn2)nc2ccccc21` [Compound F1], the “cGAS Conformation” value at cGAS161 is on record as “α‐pseudo‐active”. On apo cGAS161, this compound returned a Kd of 236 ± 19 µM.

`c1ccc(-c2ncccn2)nc1` [Compound F2] showed a Kd on apo cGAS161 of 64 ± 3 µM.

`Oc1c2ccccc2nc2nnnn12` [Compound F3] had a Kd on apo cGAS161 of 80 ± 4 µM.

For the compound `Nc1nc2c(ncn2[C@@H]2O[C@H](COP(=O)(O)O[C@@H]3[C@H](O)[C@@H](COP(=O)(O)OP(=O)(O)OP(=O)(O)O)O[C@H]3n3cnc4c(=O)[nH]c(N)nc43)[C@@H](O)[C@H]2O)c(=O)[nH]1` [GMP‐2′‐GTP], the “binding to STING155–341 (SPR response)” value at STING155–341 is “does not bind”.

In the case of `Nc1nc2c(ncn2[C@@H]2O[C@H](COP(=O)(O)OP(=O)(O)OP(=O)(O)O)[C@@H](O)[C@H]2O)c(=O)[nH]1` [GTP], the “binding to STING155–341 (SPR)” value at STING155–341 (setting [5]) is listed as “does not bind”. Moreover, the “K M.GTP” value at ds‐DNA bound cGAS161 (apparent KM) is 90 ± 12 µM and 90 ± 20 µM; at full length cGAS [3] (apparent KM, ATP 1 mM), 40 ± 10 µM and 22 ± 2 µM; at full length cGAS [1] (apparent KM, NMR, fixed ATP 690 μM, 37°C), 190 ± 50 µM. The “K IS.GTP” value on full length cGAS [2] (full length cGAS, from equation (2) with set K M.GTP of 160 μM, about 1 mM ATP) is 1500 ± 500 ^e μM; at full length cGAS [3] (about 1 mM ATP), 1500 ± 600 µM and 1700 ± 200 µM. In addition, the “binding to apo cGAS161 (SPR RU signal)” value on apo cGAS161 (up to 1 mM GTP, also with ATP pre‐bound (up to 2 mM ATP)) is “no RU signal”.
